Where two headings read alike, the source gives them in different places. One block for each compound: values may come before it.
Assay: Tissue concentrations of Formula I and its metabolites in Göttingen pigs after a single oral or intravenous dose (LC-MS/MS)
Assay type: in vivo
Details: for concentration at 2 h / concentration at 12 h / concentration at 3 h / concentration at 24 h: both sexes, Göttingen, pig (minipig)
Protocol: Tissue samples were collected at 3, 12, and 24 hours post-dose (hpd) for the oral dose and 2 and 12 hpd for the intravenous dose, snap-frozen in liquid nitrogen, and stored at −60 to −90° C. until shipment on dry ice for analysis by LC-MS/MS.
Animals were weighed the day prior to dosing to determine the dosing volume.
The compound of Formula I was dissolved in a PEG 400/DI water (60%/40% v/v) vehicle for oral dosing. For IV dosing the compound of Formula I was dissolved in a PEG 400/Cremophor RH 40/Saline (40%/10%/50% v/v) vehicle and passed through a sterile filter. […] Animals were euthanized by euthanasia solution administration under sedation, if necessary (e.g., acepromazine and or/Telazol®), followed by a Testing Facility SOP approved method to ensure death (e.g., exsanguination). Tissues were collected from two animals per sex per timepoint. Tissue samples, including the brain, heart, kidney, liver, lung, spleen, pancreas, bone marrow, duodenum, jejunum, and colon, were collected in duplicate (approximately 50±20 mg each) and placed into two separate reinforced homogenization tubes per organ (one tissue sample per tube). The exact weight (in milligrams) of each sample was recorded. Tissues samples were flash frozen in liquid nitrogen and stored at −60 to −90° C. until shipment on dry ice for analysis by LC-MS/MS.
Mobile phase A consisted of 50 mM ammonium bicarbonate buffer in HPLC grade water pH 9.8 and mobile phase B consisted of pure acetonitrile. […] Mass spectrometry analysis was performed on a QTrap 7500 Mass Spectrometer (Sciex, Framingham, MA, USA) using negative mode electrospray ionization (ESI) in multiple reaction monitoring (MRM) mode. Data analysis was performed using SCIEX OS Software (Sciex, Framingham, MA, USA).
Tissue samples were collected at 3, 12, and 24 hours post-dose for the oral dose and 2 and 12 hour post-dose for the intravenous dose.

[1] = 2-3 hours after IV 25 mg/kg or PO 125 mg/kg dosing
[2] = kidney, single intravenous bolus of Formula I 25 mg/kg, 2 hpd, read-out: Tissue concentration, kidney
[3] = kidney, single oral dose of Formula I 125 mg/kg, 3 hpd, read-out: Tissue concentration, kidney
[4] = liver, single intravenous bolus of Formula I 25 mg/kg, 2 hpd, read-out: Tissue concentration, liver
[5] = liver, single intravenous bolus of Formula I 25 mg/kg, 12 hpd, read-out: Tissue concentration, liver
[6] = liver, single oral dose of Formula I 125 mg/kg, 3 hpd, read-out: Tissue concentration in Göttingen pig liver (Table 7)
[7] = liver, single oral dose of Formula I 125 mg/kg, 3 hpd, read-out: Tissue concentration, liver
[8] = liver, single oral dose of Formula I 125 mg/kg, 12 hpd, read-out: Tissue concentration in Göttingen pig liver (Table 7)
[9] = liver, single oral dose of Formula I 125 mg/kg, 12 hpd, read-out: Tissue concentration, liver
[10] = lung, single intravenous bolus of Formula I 25 mg/kg, 2 hpd, read-out: Tissue concentration, lung
[11] = lung, single intravenous bolus of Formula I 25 mg/kg, 12 hpd, read-out: Tissue concentration, lung
[12] = lung, single oral dose of Formula I 125 mg/kg, 3 hpd, read-out: Tissue concentration, lung
[13] = spleen, single intravenous bolus of Formula I 25 mg/kg, 2 hpd, read-out: Tissue concentration, spleen
[14] = spleen, single intravenous bolus of Formula I 25 mg/kg, 12 hpd, read-out: Tissue concentration, spleen
[15] = liver, single oral dose of Formula I 125 mg/kg, 24 hpd

Brain level, additional fold lower than heart, lung and spleen [1]: approximately 10 fold
Kidney and liver levels relative to heart, lung and spleen (fold higher) [1]: approximately 10 fold
Additional decrease of levels in all organs (24 hpd after oral dose, all organs): 2-3 fold
Decrease of levels in all organs (12 hours post oral dose, all organs): 4-6 fold
concentration at 2 h (brain, single intravenous bolus of Formula I 25 mg/kg, 2 hpd, read-out: Tissue concentration, brain): 140 ± 56.7 ng/g
concentration at 12 h (brain, single intravenous bolus of Formula I 25 mg/kg, 12 hpd, read-out: Tissue concentration, brain): 6.4 ± 12.8 ng/g
concentration at 3 h (brain, single oral dose of Formula I 125 mg/kg, 3 hpd, read-out: Tissue concentration, brain): 192 ± 77.9 ng/g
concentration at 12 h (brain, single oral dose of Formula I 125 mg/kg, 12 hpd, read-out: Tissue concentration, brain): 111 ± 38.6 ng/g
concentration at 24 h (brain, single oral dose of Formula I 125 mg/kg, 24 hpd, read-out: Tissue concentration, brain): 37.9 ± 9.15 ng/g
concentration at 2 h (heart, single intravenous bolus of Formula I 25 mg/kg, 2 hpd, read-out: Tissue concentration, heart): 1990 ± 195 ng/g
concentration at 12 h (heart, single intravenous bolus of Formula I 25 mg/kg, 12 hpd, read-out: Tissue concentration, heart): 57.3 ± 23.3 ng/g
concentration at 3 h (heart, single oral dose of Formula I 125 mg/kg, 3 hpd, read-out: Tissue concentration, heart): 3370 ± 645 ng/g
concentration at 12 h (heart, single oral dose of Formula I 125 mg/kg, 12 hpd, read-out: Tissue concentration, heart): 533 ± 213 ng/g
concentration at 24 h (heart, single oral dose of Formula I 125 mg/kg, 24 hpd, read-out: Tissue concentration, heart): 240 ± 27.7 ng/g
concentration at 2 h [2]: 25400 ± 5560 ng/g
concentration at 12 h (kidney, single intravenous bolus of Formula I 25 mg/kg, 12 hpd, read-out: Tissue concentration, kidney): 701 ± 48.7 ng/g
concentration at 3 h [3]: 29400 ± 2170 ng/g
concentration at 12 h (kidney, single oral dose of Formula I 125 mg/kg, 12 hpd, read-out: Tissue concentration, kidney): 7420 ± 1440 ng/g
concentration at 24 h (kidney, single oral dose of Formula I 125 mg/kg, 24 hpd, read-out: Tissue concentration, kidney): 2740 ± 503 ng/g
concentration at 2 h [4]: 7960 ± 1530 ng/g
concentration at 12 h [5]: 201 ± 126 ng/g
concentration at 3 h [6]: 66.3 ± 23.7 µM
concentration at 3 h [7]: 18200 ± 6500 ng/g
concentration at 12 h [8]: 9.46 ± 5.56 µM
concentration at 12 h [9]: 2600 ± 1530 ng/g
concentration at 24 h (liver, single oral dose of Formula I 125 mg/kg, 24 hpd, read-out: Tissue concentration in Göttingen pig liver (Table 7)): 4.08 ± 1.84 µM
concentration at 24 h (liver, single oral dose of Formula I 125 mg/kg, 24 hpd, read-out: Tissue concentration, liver): 1120 ± 505 ng/g
concentration at 2 h [10]: 2330 ± 130 ng/g
concentration at 12 h [11]: 93.9 ± 18.8 ng/g
concentration at 3 h [12]: 3580 ± 1060 ng/g
concentration at 12 h (lung, single oral dose of Formula I 125 mg/kg, 12 hpd, read-out: Tissue concentration, lung): 536 ± 101 ng/g
concentration at 24 h (lung, single oral dose of Formula I 125 mg/kg, 24 hpd, read-out: Tissue concentration, lung): 242 ± 85.7 ng/g
concentration at 2 h [13]: 1620 ± 181 ng/g
concentration at 12 h [14]: 49.2 ± 9.7 ng/g
concentration at 3 h (spleen, single oral dose of Formula I 125 mg/kg, 3 hpd, read-out: Tissue concentration, spleen): 3010 ± 433 ng/g
concentration at 12 h (spleen, single oral dose of Formula I 125 mg/kg, 12 hpd, read-out: Tissue concentration, spleen): 539 ± 195 ng/g
concentration at 24 h (spleen, single oral dose of Formula I 125 mg/kg, 24 hpd, read-out: Tissue concentration, spleen): 292 ± 139 ng/g
12 hpd levels after IV dosing, fold lower than corresponding levels after PO dosing (each organ, 12 hpd, IV 25 mg/kg vs PO 125 mg/kg): approximately 10 fold
SMILES: C[C@@]1(O)[C@H](O)[C@@H](CO)O[C@H]1n1ccc(=O)[nH]c1=S [Formula VI]

concentration at 12 h (125 mg/kg, liver, 12 hpd after oral dosing with Formula I, assumed tissue density of 1 g/mL, read-out: Concentration present in the liver): ~1 µM
concentration at 12 h (lung, 25 mg/kg, lungs, 12 hrs post-dose after IV dosing with Formula I, read-out: Concentration maintained in lungs): ~1 µM
concentration at 2 h [2]: 4410 ± 2040 ng/g
concentration at 3 h [3]: 613 ± 280 ng/g
concentration at 2 h [4]: 2610 ± 892 ng/g
concentration at 12 h [5]: 62.8 ± 126 ng/g
concentration at 3 h [6]: 12.9 ± 12.3 µM
concentration at 3 h [7]: 6670 ± 6310 ng/g
concentration at 12 h [8]: 0.88 ± 1.05 µM
concentration at 12 h [9]: 452 ± 541 ng/g
concentration at 2 h [10]: 3620 ± 2770 ng/g
concentration at 12 h [11]: 455 ± 263 ng/g
concentration at 3 h [12]: 170 ± 29.5 ng/g
concentration at 2 h [13]: 318 ± 181 ng/g
concentration at 12 h [14]: 47.5 ± 95 ng/g
Tissue concentration, brain (brain, single intravenous bolus of Formula I 25 mg/kg, 2 hpd): BQL
Tissue concentration, brain (brain, single intravenous bolus of Formula I 25 mg/kg, 12 hpd): BQL
Tissue concentration, brain (brain, single oral dose of Formula I 125 mg/kg, 3 hpd): not detected and BQL
Tissue concentration, brain (brain, single oral dose of Formula I 125 mg/kg, 12 hpd): BQL
Tissue concentration, brain (brain, single oral dose of Formula I 125 mg/kg, 24 hpd): BQL
Tissue concentration, heart (heart, single intravenous bolus of Formula I 25 mg/kg, 2 hpd): 405 ± 149 ng/g
Tissue concentration, heart (heart, single intravenous bolus of Formula I 25 mg/kg, 12 hpd): 140 ± 32.0 ng/g
Tissue concentration, heart (heart, single oral dose of Formula I 125 mg/kg, 3 hpd): 64.3 ± 75.4 ng/g
Tissue concentration, heart (heart, single oral dose of Formula I 125 mg/kg, 12 hpd): BQL
Tissue concentration, heart (heart, single oral dose of Formula I 125 mg/kg, 24 hpd): BQL
Tissue concentration, kidney (kidney, single intravenous bolus of Formula I 25 mg/kg, 2 hpd): 4410 ± 2040 ng/g
Tissue concentration, kidney (kidney, single intravenous bolus of Formula I 25 mg/kg, 12 hpd): not detectable and BQL
Tissue concentration, kidney (kidney, single oral dose of Formula I 125 mg/kg, 3 hpd): 613 ± 280 ng/g
Tissue concentration, kidney (kidney, single oral dose of Formula I 125 mg/kg, 12 hpd): BQL
Tissue concentration, kidney (kidney, single oral dose of Formula I 125 mg/kg, 24 hpd): BQL
Tissue concentration, liver (liver, single intravenous bolus of Formula I 25 mg/kg, 2 hpd): 2610 ± 892 ng/g
Tissue concentration, liver (liver, single intravenous bolus of Formula I 25 mg/kg, 12 hpd): 62.8 ± 126 ng/g
Tissue concentration, liver (liver, single oral dose of Formula I 125 mg/kg, 3 hpd): 6670 ± 6310 ng/g
Tissue concentration, liver (liver, single oral dose of Formula I 125 mg/kg, 12 hpd): 452 ± 541 ng/g
Tissue concentration in Göttingen pig liver (Table 7) [15]: BQL
Tissue concentration, liver [15]: BQL
Tissue concentration, lung (lung, single intravenous bolus of Formula I 25 mg/kg, 2 hpd): 3620 ± 2770 ng/g
Tissue concentration, lung (lung, single intravenous bolus of Formula I 25 mg/kg, 12 hpd): 455 ± 263 ng/g
Tissue concentration, lung (lung, single oral dose of Formula I 125 mg/kg, 3 hpd): 170 ± 29.5 ng/g
Tissue concentration, lung (lung, single oral dose of Formula I 125 mg/kg, 12 hpd): BQL
Tissue concentration, lung (lung, single oral dose of Formula I 125 mg/kg, 24 hpd): BQL
Tissue concentration, spleen (spleen, single intravenous bolus of Formula I 25 mg/kg, 2 hpd): 318 ± 181 ng/g
Tissue concentration, spleen (spleen, single intravenous bolus of Formula I 25 mg/kg, 12 hpd): 47.5 ± 95.0 ng/g
Tissue concentration, spleen (spleen, single oral dose of Formula I 125 mg/kg, 3 hpd): not detected and BQL
Tissue concentration, spleen (spleen, single oral dose of Formula I 125 mg/kg, 12 hpd): BQL
Tissue concentration, spleen (spleen, single oral dose of Formula I 125 mg/kg, 24 hpd): BQL
SMILES: CC1(O)[C@@H](O)[C@@H](COP(=O)(O)OP(=O)(O)OP(=O)(O)O)O[C@H]1n1ccc(=O)[nH]c1=S (stereo partly drawn) [Formula V]

From US20240390408A1, “METHOD OF TREATING HEPATITIS C VIRUS IN PATIENTS” (Altesa BioSciences, Inc., priority 2023, published 2024)
